ChEMBL document CHEMBL6087480, “In Search for Inhibitors of Human Aldo-Keto Reductase 1B10 (AKR1B10) as Novel Agents to Fight Cancer and Chemoresistance: Current State-of-the-Art and Prospects” (J Med Chem, 2025)

Columns and labels:
[1] = molecular target: T1, Aldo-keto reductase family 1 member B1 (Homo sapiens, UniProt P15121); experiment: Inhibition of AKR1B1 (unknown origin)
[2] = molecular target: T2, Aldo-keto reductase family 1 member B10 (Homo sapiens, UniProt O60218); experiment: Inhibition of AKR1B10 (unknown origin)
[3] = molecular target: T1, Aldo-keto reductase family 1 member B1; experiment: Inhibition of N-terminal 6his-tagged wild type human recombinant AKR1B1 extracted from Escherichia coli BL21 (DE3) by fluorescence based analysis
[4] = molecular target: T1, Aldo-keto reductase family 1 member B1; experiment: Inhibition of human recombinant AKR1B1
[5] = molecular target: T2, Aldo-keto reductase family 1 member B10; experiment: Inhibition of human recombinant AKR1B10
[6] = molecular target: T1, Aldo-keto reductase family 1 member B1; experiment: Inhibition of human recombinant AKR1B1 by fluorescence based analysis

T2 sequence (O60218 whole entry): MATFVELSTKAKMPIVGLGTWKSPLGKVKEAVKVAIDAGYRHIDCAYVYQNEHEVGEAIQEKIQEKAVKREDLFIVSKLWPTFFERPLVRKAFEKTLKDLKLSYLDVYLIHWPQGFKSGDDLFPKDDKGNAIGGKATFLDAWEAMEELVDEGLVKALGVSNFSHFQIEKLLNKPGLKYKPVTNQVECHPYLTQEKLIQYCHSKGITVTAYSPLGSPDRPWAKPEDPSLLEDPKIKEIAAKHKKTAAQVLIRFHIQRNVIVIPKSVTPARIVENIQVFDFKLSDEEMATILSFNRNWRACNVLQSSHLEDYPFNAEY

SMILES | IC50 [1] [nM] | IC50 [2] [nM] | also measured
C[C@]12CC[C@H](O)C[C@@H]1CC[C@@H]1[C@@H]2CC[C@]2(C)C(=O)CC[C@@H]12 [EPIANDROSTERONE] | 37000 | 320 | 
COc1cc(O)ccc1/C=C/C(=O)OCCc1ccccc1 |  | 10 | 
C[C@]12CCC(=O)C[C@@H]1CC[C@@H]1[C@@H]2CC[C@]2(C)C(=O)CC[C@@H]12 | 25000 | 390 | 
NC(=O)[C@@H]1C[C@]2(NC(=O)NC2=O)c2cc(F)ccc2O1 |  | 24000 | IC50 [3]: 80 nM
C[C@]12CC[C@@H]3c4ccc(O)cc4CC[C@H]3[C@@H]1CC[C@@H]2O [ESTRADIOL] | 24000 | 3000 | 
O=c1c(O)c(-c2cc(O)c(O)c(O)c2)oc2cc(O)cc(O)c12 [MYRICETIN] | 610 |  | 
C[C@H](CCC(=O)O)[C@H]1CC[C@H]2[C@@H]3CC[C@@H]4CCCC[C@]4(C)[C@H]3CC[C@]12C [URSOCHOLANIC ACID] | 16000 | 50 | 
COc1cc(O)ccc1/C=C/C(=O)OCCCc1ccccc1O |  | 100 | 
C[C@H](CCC(=O)O)[C@H]1CC[C@H]2[C@@H]3C[C@@H](O)[C@@]4(O)C[C@@H](O)CC[C@]4(CO)[C@H]3CC[C@]12C | 5400 | 760 | 
Cc1cc(O)c2c(c1)C(=O)c1cc(O[C@@H]3OC[C@](O)(CO)[C@H]3O)cc(O)c1C2=O [FRANGULIN B] |  |  | IC50 [4]: 5450 nM
COc1c(O)cc2oc3cc(O)c(CC=C(C)C)c(O)c3c(=O)c2c1CC=C(C)C [MANGOSTIN] |  |  | IC50 [4]: 4100 nM
CC(=O)[C@H]1CC[C@H]2[C@@H]3CC[C@H]4CC(=O)CC[C@]4(C)[C@H]3CC[C@]12C | 13000 | 440 | 
C[C@@]12CCC[C@H]1[C@@H]1C[C@H](O)C3=C[C@@H](O)CC[C@]3(C)[C@H]1CC2 | 68000 | 500 | 
COc1ccc(/N=c2\oc3cc(O)ccc3cc2C(=O)Nc2ccccn2)cc1 |  | 500 | 
COc1cc(O)c(CC=C(C)C)c2c1C(=O)C[C@@H](c1ccc(O)cc1)O2 | 570 | 1090 | 
COc1ccc(OC)c(/N=c2\oc3cc(O)ccc3cc2C(=O)Nc2ccccn2)c1 |  | 20 | 
COc1cc(/C=C/C(=O)CC(=O)/C=C/c2ccc(O)c(OC)c2)ccc1O [CURCUMIN] |  |  | IC50 [4]: 7300 nM
COc1cc(/C=C/C(=O)CC(=O)/C=C/c2ccc(O)cc2)ccc1O |  |  | IC50 [4]: 1200 nM
C/C(=C\c1ccc(C(=O)O)cc1Br)c1ccc2c(c1)C(C)(C)CCC2(C)C | > 70000 | 6100 | 
O=C(NCCCc1cccc(O)c1)c1cc2ccc(O)cc2oc1=O |  | 800 | 
O=c1c(-c2ccc(O)cc2)coc2cc(O)cc(O)c12 [GENISTEIN] |  | 5500 | 
O=c1cc(-c2ccccc2)oc2cc(O)cc(O)c12 [CHRYSIN] | 290 | 2100 | 
Cc1c2cc(O)c(=O)cc-2oc2cc(O)c(O)cc12 |  | 400 | 
Cc1cc(O)c2c(c1)C(=O)c1cc(O[C@@H]3O[C@@H](C)[C@H](O)[C@@H](O)[C@H]3O)cc(O)c1C2=O [FRANGULIN A] |  |  | IC50 [4]: 5730 nM
Cc1cc(O)c2c(c1)C(=O)c1cc(O)cc(O)c1C2=O [EMODIN] |  |  | IC50 [4]: 3470 nM
CC(C)=CCC1=C(O)[C@](O)(CC=C(C)C)C(=O)C(C(=O)CC(C)C)=C1O | > 125000 | 1940 | 

SMILES | IC50 [1] [nM] | IC50 [2] [nM] | also measured
CC(C)=CCC1=C(O)[C@](O)(CC=C(C)C)C(=O)C(C(=O)C(C)C)=C1O | > 125000 |  | 
C[C@@]12CCC[C@H]1[C@@H]1CC(=O)C3=CC(=O)CC[C@]3(C)[C@H]1CC2 | 158000 | 810 | 
C[C@]12CCC(=O)C[C@@H]1CC[C@@H]1[C@@H]2CC[C@]2(C)[C@@H](C(=O)CO)CC[C@@H]12 | 55000 | 370 | 
Oc1c(F)c(F)c(-c2c(F)c(F)c(O)c(F)c2F)c(F)c1F | 300 | 1000 | 
CC1=C(CC(=O)O)c2cc(F)ccc2/C1=C\c1ccc([S+](C)[O-])cc1 (stereo not given) |  |  | IC50 [5]: 350 nM; IC50 [6]: 210 nM
O=C(O)Cc1ccccc1Nc1c(Cl)cccc1Cl [DICLOFENAC] |  |  | IC50 [6]: > 100000 nM
C[C@H](CCC(=O)O)[C@H]1CC[C@H]2[C@@H]3C[C@@H](O)[C@@]4(O)C[C@@H](O)CC[C@]4(C)[C@H]3CC[C@]12C | > 100000 | 830 | 
COc1ccc(/N=c2\oc3cc(O)ccc3cc2C(=O)Nc2ccccn2)c(OC)c1 |  | 10 | 
COc1c(Cn2c(=O)ccn(CC(=O)O)c2=O)cc(Br)c(Br)c1Br | 3600 | 450 | 
C[C@]12CC[C@@H]3c4ccc(O)cc4CC[C@H]3[C@@H]1CCC2=O [ESTRONE] | 31000 | 1600 | 
COc1ccc(/N=c2\oc3cc(O)ccc3cc2C(=O)Nc2cccc(C)n2)cc1OC |  | 30 | 
CC(C)=CCc1c(O)cc2oc3cc(O)c(O)c(CC=C(C)C)c3c(=O)c2c1O |  |  | IC50 [4]: 290 nM
O=C(/C=C/c1ccc(O)c(O)c1)c1ccc(O)cc1O [BUTEIN] |  |  | IC50 [4]: 500 nM
O=C(O)Cn1ccc(=O)n(Cc2ccc(Cl)c([N+](=O)[O-])c2)c1=O | 10000 | 21600 | 
CC(=O)[C@H]1CC[C@H]2[C@@H]3CC[C@H]4C[C@@H](O)CC[C@]4(C)[C@H]3CC[C@]12C [SEPRANOLONE] | 39000 | 500 | 
COc1ccc2c(C(=S)N(C)CC(=O)O)cccc2c1C(F)(F)F [TOLRESTAT] |  | 50 | 
O=C(/C=C/c1ccc(O)c(O)c1)O[C@H]1C[C@@](O)(C(=O)O)C[C@H](O)[C@@H]1O |  | 7900 | 
Cc1ccc(Cl)c(Nc2ccccc2C(=O)O)c1Cl [MECLOFENAMIC ACID] |  |  | IC50 [5]: 9800 nM; IC50 [6]: > 100000 nM
C=CCc1cc(-c2cccc(CC=C)c2O)ccc1O |  |  | IC50 [4]: 36000 nM
C[C@H](CCC(=O)O)[C@H]1CC[C@H]2[C@@H]3CC[C@@H]4C[C@@H](O)CC[C@]4(C)[C@H]3CC[C@]12C [ISOLITHOCHOLIC ACID] |  | 20 | 
C=CCc1ccc(O)c(-c2cc(CC=C)ccc2O)c1 [MAGNOLOL] |  |  | IC50 [4]: 28000 nM
Oc1ccc(/C=C/c2cc(O)cc(O)c2)cc1 [RESVERATROL] |  |  | IC50 [4]: 73000 nM
O=c1c(O)c(-c2ccc(O)c(O)c2)oc2cc(O)cc(O)c12 [QUERCETIN] |  | 1900 | 
COc1cc(O)ccc1/C=C/C(=O)OCCCc1cccc(O)c1 |  | 500 | 
CC(=O)[C@H]1CC[C@H]2[C@@H]3CC[C@@H]4CC(=O)CC[C@]4(C)[C@H]3CC[C@]12C | 9000 | 780 | 
CC1(C)CC[C@]2(C(=O)O)CC[C@]3(C)C(=CC[C@@H]4[C@@]5(C)C[C@@H](O)[C@H](O)C(C)(C)[C@@H]5CC[C@]43C)[C@@H]2C1 [MASLINIC ACID] |  | 600 | 
